In one assay the target is T1, Akt1 (Homo sapiens, UniProt P31749).
T1 construct: 0.1 ng/ul His-AKT (Full Length), (Invitrogen, Part #P2999, Lot #641228C); His; purchased Invitrogen P2999
Put plainly: AKT/PKB Kinase Assay. In kind it is biochemical. The following applies: His-AKT (Full Length), 160 uM ATP, 90 min at 25 C. The protocol:
In order to measure AKT inhibition in the Caliper Life Sciences LC3000, a TTP Mosquito liquid handling instrument was used to place 125 nl of the appropriate concentration of inhibitor in 100% DMSO (for a dose response curve calculation) into each well of a 384-well plate. To this reaction components were added to a final volume of 12.5 ul: • 0.1 ng/ul His-AKT (Full Length), (Invitrogen, Part #P2999, Lot #641228C) • 160 uM ATP (Fluke, 02055) • 1 mM DTT (Sigma, D0632) • 1 mM MgCl2 (Sigma, M1028) • 1 uM substrate peptide (sequence FITC-AHA-GRPRTSSFAEG-NH2), synthesized by Tufts Peptide Synthesis service. • 100 mM HEPES pH 7.5 (Calbiochem, 391338) • 0.015% Brij-35 (Sigma, B4184)
The reaction was incubated for 90 min at 25 C, and then stopped by the addition of 70 ul of Stop buffer (100 mM HEPES pH 7.5, 0.015% Brij-35, 10 mM EDTA (Sigma, E7889)).
The plate was read on a Caliper LC 3000 in an Off-Chip mobility shift assay format, using the following parameters for a 12-sipper chip: screening pressure −2.3 psi, upstream voltage −500, and downstream voltage −3000.
These conditions cause unphosphorylated substrate and phosphorylated product peptide to resolve as separate peaks allowing direct measurement of percentage of conversion of substrate to product. The percent conversion was plotted against concentration of inhibitor to produce a sigmoidal dose response curve, from which an IC50 was calculated.

The target of a further assay is T2, P70S6K (T412E mutant) (Homo sapiens, UniProt P23443, T412E).
T2 construct: purchased Millipore
T2 sequence (P23443 1-421 T412E limits assumed): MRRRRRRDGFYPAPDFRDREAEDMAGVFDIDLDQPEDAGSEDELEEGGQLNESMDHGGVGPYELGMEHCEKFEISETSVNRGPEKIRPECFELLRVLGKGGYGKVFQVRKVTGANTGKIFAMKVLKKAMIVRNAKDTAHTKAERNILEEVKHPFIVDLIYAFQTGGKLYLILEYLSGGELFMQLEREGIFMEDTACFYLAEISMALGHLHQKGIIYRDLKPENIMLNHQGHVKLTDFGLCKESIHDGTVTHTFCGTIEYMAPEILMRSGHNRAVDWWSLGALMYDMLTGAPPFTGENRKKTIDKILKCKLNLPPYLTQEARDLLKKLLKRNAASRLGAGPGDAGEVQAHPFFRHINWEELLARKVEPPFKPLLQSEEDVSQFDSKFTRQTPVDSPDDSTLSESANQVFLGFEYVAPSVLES
Put plainly: p70S6K Enzyme Assay. To be noted: 24 μM ATP, 90 min at 25° C., Caliper mobility shift. In kind it is biochemical. A digest of the protocol: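 Mobile-shift assay: 3 nM P70S6K T412E with 24 μM ATP and 1 μM FITC-labelled S6-derived peptide in Hepes pH 7.5, MgCl2, DTT, Brij; 90 min at 25 °C, stopped with EDTA. Substrate/phosphopeptide ratio separated electrophoretically on Caliper LabChip; IC50 determined.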

Another assay addresses T3, Aurora B (Homo sapiens, UniProt Q96GD4).
T3 construct: GST-Aurora B (1-344 amino acids); GST (N); purchased Carna Biosciences 05-102
Put plainly: Aurora B Kinase Assay. Format: biochemical. To be noted: for IC50: GST-Aurora B (1-344), 10 uM ATP, 90 min at 25 C. The method in brief: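 GST-Aurora B (aa 1-344, with His-INCENP) at 0.1 ng/ul, 10 uM ATP and 1 uM FITC-LRRASLG peptide in HEPES pH 7.5 with MgCl2 and DTT, 90 min at 25 C, stopped with EDTA. Substrate-to-product conversion read by off-chip mobility shift; IC50 from sigmoidal dose-response fit.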

Another assay concerns pS6 MDA-MB-468. Put plainly: Cellular Activity Assay (phospho-S6 in MDA-MB-468 cells). Format: cell-based. The following applies: Homo sapiens, 2 hr compound incubation, percent pS6-positive cells. A digest of the protocol:
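MDA-MB-468 cells treated with compound for 2 hr, fixed, then immunostained for phospho-S6 with propidium iodide counterstain. Green (pS6) and red (total) cells counted by laser-scanning cytometry; IC50 derived from percent pS6-positive cells versus compound concentration.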

T3 sequence (Q96GD4 whole entry, the tested form may be a part): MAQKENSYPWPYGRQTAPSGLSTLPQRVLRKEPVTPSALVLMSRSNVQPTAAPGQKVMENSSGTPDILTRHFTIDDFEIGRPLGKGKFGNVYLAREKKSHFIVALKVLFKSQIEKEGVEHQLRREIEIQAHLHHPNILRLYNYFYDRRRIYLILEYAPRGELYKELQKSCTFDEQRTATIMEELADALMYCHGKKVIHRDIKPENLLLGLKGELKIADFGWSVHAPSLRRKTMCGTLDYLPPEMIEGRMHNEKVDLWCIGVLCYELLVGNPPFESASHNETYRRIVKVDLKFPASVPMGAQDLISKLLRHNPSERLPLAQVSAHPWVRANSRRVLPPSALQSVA
T3 sequence (Q9NQS7 803-918 partner limits assumed): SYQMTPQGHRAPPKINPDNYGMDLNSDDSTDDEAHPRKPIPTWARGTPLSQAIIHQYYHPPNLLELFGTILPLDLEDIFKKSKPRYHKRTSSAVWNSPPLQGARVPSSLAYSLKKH
T1 sequence (P31749 whole entry): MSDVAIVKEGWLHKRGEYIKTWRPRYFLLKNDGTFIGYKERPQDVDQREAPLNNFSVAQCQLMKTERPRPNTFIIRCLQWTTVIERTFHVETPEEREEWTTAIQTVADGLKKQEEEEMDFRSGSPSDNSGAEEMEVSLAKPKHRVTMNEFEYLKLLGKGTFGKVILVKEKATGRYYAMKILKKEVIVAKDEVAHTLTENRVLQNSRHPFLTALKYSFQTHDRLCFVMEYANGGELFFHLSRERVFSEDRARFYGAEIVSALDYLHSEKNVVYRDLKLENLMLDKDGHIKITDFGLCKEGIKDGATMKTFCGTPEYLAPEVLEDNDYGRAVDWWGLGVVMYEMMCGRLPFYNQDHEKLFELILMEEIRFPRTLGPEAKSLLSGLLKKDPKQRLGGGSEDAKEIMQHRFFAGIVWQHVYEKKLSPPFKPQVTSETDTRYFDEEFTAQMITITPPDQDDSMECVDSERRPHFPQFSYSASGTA

Take `NC(=O)c1cccc2c(N[C@H](CN3CC(F)C3)c3ccc(F)c(C(F)(F)F)c3)ncnc12` [Example 49, 4-[(S)-2-(3-Fluoro-azetidin-1-yl)-1-(4-fluoro-3-trifluoromethyl-phenyl)-ethylamino]-quinazoline-8-carboxylic acid amide]: the IC50 at Akt1 turned out to be 16 nM; at P70S6K (T412E mutant), 5 nM; against Aurora B, 540 nM; with pS6 MDA-MB-468 it was 116 nM.
As to `NC(=O)c1cccc2c(N[C@H](CN3CCC3)c3ccc(C(F)(F)F)c(Cl)c3)ncnc12` [Example 17, 4-[(S)-2-Azetidin-1-yl-1-(3-chloro-4-trifluoromethylphenyl)-ethylamino]-quinazoline-8-carboxylic acid amide], the IC50 turned out to be 3.7 nM against Akt1, 2.3 nM on P70S6K (T412E mutant), 130 nM on Aurora B and 8 nM in the assay with pS6 MDA-MB-468.
The like results for `CC1CN(C[C@@H](Nc2ncnc3c(C(N)=O)cccc23)c2ccc(F)c(C(F)(F)F)c2)C1` [Example 46, 4-[(S)-1-(4-Fluoro-3-trifluoromethyl-phenyl)-2-(3-methyl-azetidin-1-yl)-ethylamino]-quinazoline-8-carboxylic acid amide] were, in that order, 7.5 nM, 4.9 nM, 390 nM and 427 nM.
In the same order, the values of `NC(=O)c1cccc2c(N[C@H](CN3CCC3)c3ccc(F)cc3Cl)ncnc12` [Example 24, 4-[(S)-2-Azetidin-1-yl-1-(2-chloro-4-fluoro-phenyl)-ethylamino]-quinazoline-8-carboxylic acid amide] are 77 nM, 8.7 nM, 107 nM and 1030 nM.
In the same order, the values of `COc1cccc([C@@H](CN2CCC2)Nc2ncnc3c(C(N)=O)cccc23)c1` [Example 12, 4-[(S)-2-Azetidin-1-yl-1-(3-methoxyphenyl)-ethylamino]-quinazoline-8-carboxylic acid amide] are 250 nM, 4.4 nM, 67 nM and 204 nM.
Regarding `NC(=O)c1cccc2c(N[C@H](CN3CCC3)c3ccc(F)c(C(F)(F)F)c3)ncnc12` [Example 31, 4-[(S)-2-Azetidin-1-yl-1-(4-fluoro-3-trifluoromethyl-phenyl)-ethylamino]-quinazoline-8-carboxylic acid amide], the IC50 on Akt1 was 7.3 nM; on P70S6K (T412E mutant), 2.4 nM; against Aurora B it was 285 nM; in the assay on pS6 MDA-MB-468, 28 nM.
In the same order, the values of `N#Cc1ccc([C@@H](CN2CCC2)Nc2ncnc3c(C(N)=O)cccc23)cc1` [Example 23, 4-[(S)-2-Azetidin-1-yl-1-(4-cyano-phenyl)-ethylamino]-quinazoline-8-carboxylic acid amide] are 11 nM, 1.3 nM, 150 nM and 29 nM.
Turning to `NC(=O)c1cccc2c(N[C@H](CN3CCC3)c3cccc(F)c3)ncnc12` [Example 1, 4-[(S)-2-Azetidin-1-yl-1-(3-fluorophenyl)-ethylamino]-quinazoline-8-carboxylic acid amide], the IC50 against Akt1 was determined as 22 nM; at P70S6K (T412E mutant) it was 5.6 nM; against Aurora B it was 45 nM; with pS6 MDA-MB-468, 70 nM. The “Aurora B/p70S6K inhibitory ratio” value on Aurora B (ratio of Aurora B to p70S6K inhibition) amounted to 28.
In the case of `NC(=O)c1cccc2c(N[C@H](CN3CCC3)c3cc(F)cc(C(F)(F)F)c3)ncnc12` [Example 6, 4-[(S)-2-Azetidin-1-yl-1-(3-fluoro-5-trifluoromethylphenyl)-ethylamino]-quinazoline-8-carboxylic acid amide], the IC50 at Akt1 came out at 9.1 nM; on P70S6K (T412E mutant) it was 2.3 nM; on Aurora B, 270 nM; with pS6 MDA-MB-468, 98 nM.
In the same order, the values of `NC(=O)c1cccc2c(N[C@H](CN3CCC3)c3cccc(C(F)(F)F)c3)ncnc12` [Example 27, 4-[(S)-2-Azetidin-1-yl-1-(3-trifluoromethyl-phenyl)-ethylamino]-quinazoline-8-carboxylic acid amide] are 5.6 nM, 1.4 nM, 180 nM and 56 nM.
`NC(=O)c1cccc2c(N[C@H](CN3CCC3)c3ccc(Br)cc3)ncnc12` [Example 8, 4-[(S)-2-Azetidin-1-yl-1-(4-bromophenyl)-ethylamino]-quinazoline-8-carboxylic acid amide]: the IC50 amounted to 48 nM on Akt1, 1.6 nM at P70S6K (T412E mutant), 65 nM against Aurora B and 39 nM with pS6 MDA-MB-468.
In the same order, the values of `NC(=O)c1cccc2c(N[C@H](CN3CCC3)c3cc(F)ccc3Cl)ncnc12` [Example 25, 4-[(S)-2-Azetidin-1-yl-1-(2-chloro-5-fluoro-phenyl)-ethylamino]-quinazoline-8-carboxylic acid amide] are 370 nM, 3.1 nM, 259 nM and 486 nM.
As for `NC(=O)c1cccc2c(N[C@H](CN3CCC3)c3cccc(Cl)c3)ncnc12` [Example 2, 4-[(S)-2-Azetidin-1-yl-1-(3-chlorophenyl)-ethylamino]-quinazoline-8-carboxylic acid amide], the IC50 on Akt1 amounted to 10 nM; on P70S6K (T412E mutant), 1.1 nM; on Aurora B, 47 nM; in the assay with pS6 MDA-MB-468 it was 16 nM.

As a reminder, the IC50 is the concentration that inhibits the measured activity by half.

(Values after patent US8946247B2, “Quinazoline carboxamide azetidines” (Merck Patent GmbH, priority 2010, dated 2015).)
